System: lysine deficient rats
Test: Effect of a medicine on abnormal bowel movement of lysine deficient rats (carmine dye feces count)
Assay type: in vivo, rats (male Wistar)
Details: oral administration with carmine dye; rats fed low lysine diet 7 days, fasted one day; Dunnett's method
Text: The low lysine diet (n=10) or lysine-containing diet (normal diet; n=10) was given to rats (Charles River Japan, Inc, male Wistar rats, 5W). The rats fed for 7 days were used. Each rat was fasted one day before the start of the experiments (on the 6th day after beginning the feeding of the experimental diet) and then a medicine and carmine dye were orally administered. The number of the carmine colorant-containing feces was cumulatively counted sequentially. The statistical analysis was conducted according to Dunnett's method.

Cc1[nH]cnc1CN1CCc2c(c3ccccc3n2C)C1=O [Alosetron]
acceleration of the excretion of carmine-containing feces: significantly control the acceleration of the excretion of the feces
